# Laboratory results: patent publication US20260206786A1, “PROCEDURE FOR PREPARING COMPOSITIONS WITH A HIGH CONTENT OF BIOACTIVE COMPOUNDS” (I.T.P. S.R.L. INNOVATION & TECHNOLOGY PROVIDER, priority 2022, published 2026)
# Like-named read-outs stand apart in the source and are kept apart here.
# Experiments:
# [1] = Concentration of bioactive compound in oil enriched by the process of the invention; type: physicochemical
# Method: (§1) Spectrophotometric analyses were performed using an ONDA UV/VIS Spectrophotometer, Model UV-31 SCAN. The oil samples were suitably diluted in RPE ethanol supplied by Carlo Erba. Scans were performed in the wavelength range of 600 nm and 300 nm, with a step size of 1 nm, using optical glass cuvettes.
# (§2) HPLC analyses were performed using an Agilent HPLC Chromatograph, 1100 Series, equipped with an Agilent Technologies 1200 Series DAD UV/VIS detector, using an Agilent Eclipse plus 95 Å C18 Column, (100 mm—4.6 mm, 3.5 μm). Acetonitrile, Methanol, Water and Formic Acid for HPLC supplied by Sigma-Aldrich were used for the mobile phase.
# At the end of the process, 5 mL of enriched oil was recovered with a concentration expressed as mass of lycopene per mass of oil of 35 mg/100 g, a concentration measured at 25° C. after centrifuging the oil for 15 minutes at 10,000 RPM.
# [2] = Comparison of process of the invention with maceration in oil, HPLC chromatograms; type: physicochemical; details: Argan oil; Example 1 versus maceration of pure lycopene powder in oil
# Method: as §2
# (§3) In order to compare the efficacy of the method of the invention with the traditional method of enrichment by maceration in oil, enrichment of vegetable oils was carried out using both methods. Subsequently, equal amounts of oil obtained using the two methods were solubilised in a suitable solvent, respecting the same dilution ratio, and the resulting solutions were subjected to chromatographic and spectrophotometric analysis.
# [3] = Comparison of process of the invention with maceration in oil, UV/VIS spectra; type: physicochemical
# Method: as §1, §3
# [4] = traditional preparation techniques, literature, cited from earlier work
SMILES,"concentration expressed as mass of lycopene per mass of oil ([1]; refined argan oil enriched per Example 1 (R1234ze, 28° C., 4.5 atm, 120 minutes), measured at 25° C. after centrifuging 15 minutes at 10,000 RPM) [mg/100 g]","lycopene concentration (HPLC peak area), process of the invention versus conventional method [2]","lycopene concentration (absorbance at 502 nm), process of the invention versus traditional methodology ([3]; Argan oil, Example 1 versus maceration of pure lycopene powder in oil)",maximum concentration in vegetable oil [4],"concentration expressed as mass of Curcumin on mass of oil ([1]; wheat germ oil enriched per Example 2 (R1234ze, 28° C., 4.5 atm, 355 minutes), measured at 25° C. after centrifugation 15 minutes at 10,000 RPM) [mg/100 g]","concentration expressed as mass of Capsaicin on mass of oil ([1]; deodorised sunflower oil enriched per Example 3 (R134a, 35° C., 7.66 atm, 90 minutes), measured at 25° C. after centrifugation 15 minutes at 10,000 RPM) [mg/100 g]","capsaicin concentration (absorbance at 280 nm), innovative methodology versus traditional methodology ([3]; sunflower oil, Example 3 versus maceration)",maximum concentration in vegetable oil ([4]; listed as capsicin)
CC(C)=CCC/C(C)=C/C=C/C(C)=C/C=C/C(C)=C/C=C/C=C(C)/C=C/C=C(C)/C=C/C=C(\C)CCC=C(C)C [lycopene],35,about 3.3 times,approximately 3.3 times,7-8 mg per 100 g of oil,–,–,–,–
COc1cc(/C=C/C(=O)CC(=O)/C=C/c2ccc(O)c(OC)c2)ccc1O [curcumin],–,–,–,–,1420,–,–,–
COc1cc(CNC(=O)CCCC/C=C/C(C)C)ccc1O [capsaicin],–,–,–,no more than 10 mg per 100 g of oil,–,61.2,approximately 6 times,≤ 10 mg per 100 g of oil
